Biological target: T1, S1P1 receptor (Homo sapiens, UniProt P21453)
T1 construct: expressed in transfected cells; membrane preparation
Assay: 35S-GTPγS binding assay using membrane preparation of CHO cell stably expressing S1P1 receptor
Assay type: biochemical
Settings: agonist activity
Experimental: ^35s-GTPγS binding assay using membrane preparation of CHO cell stably expressing S1P1 receptor
A G protein-GTPγS binding test associated with a ligand was performed by using a membrane preparation which was obtained from a CHO cell which stably overexpressed S1P1 receptor. In a 96 well-micro-titer dish, the produced membrane protein and a compound which was diluted with a solvent such as DMSO or sphingosine-1-phosphate in various concentrations was incubated in a solution containing 20 mM of Tris-Cl (pH7.5), 100 mM of NaCl, 10 mM of MgCl2, 5μM of GDP, 0.1% of BSA, and […] of ^35s-GTPγS (specific radioactivity, 1250 Ci mmol). The binding was performed for 1 or more hours at room temperature, and the membrane was harvested on a GF/B filter plate by using a Millipore's MultiScreen Separation System to end the binding. After the filter plate was dried for 30 or more minutes, 25 μL of MicroScint-20 was added to each well, and the binding was measured by using the TopCount.
For the agonist activity of compound, the value of a well which a solvent was added to was set to a control value and compared with an increment of an evaluation compound-added well, so that the increment of each concentration of the compound was obtained. EC50 value was calculated under the definition that the value is an agonist concentration required to provide 50% of the maximum increment thereof. […]

T1 sequence (P21453 whole entry): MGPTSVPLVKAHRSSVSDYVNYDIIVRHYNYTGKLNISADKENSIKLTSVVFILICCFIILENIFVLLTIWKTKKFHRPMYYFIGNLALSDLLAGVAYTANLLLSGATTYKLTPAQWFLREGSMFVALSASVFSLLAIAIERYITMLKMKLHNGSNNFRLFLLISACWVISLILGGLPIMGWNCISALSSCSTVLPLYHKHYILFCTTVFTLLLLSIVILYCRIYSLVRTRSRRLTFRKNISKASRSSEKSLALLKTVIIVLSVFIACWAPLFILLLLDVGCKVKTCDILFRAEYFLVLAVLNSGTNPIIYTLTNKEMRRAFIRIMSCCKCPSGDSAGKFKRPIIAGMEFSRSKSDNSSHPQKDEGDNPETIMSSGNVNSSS

Row | SMILES | EC50 [nM]
1 | O=C(O)CCNCc1ccc(-c2noc(-c3ccc(-c4cccc(F)c4)cc3)n2)cc1 [Example 68] | 5.5
2 | O=C(O)C(CO)NCc1ccc(OCc2cc(-c3ccccc3)c(C(F)(F)F)s2)cc1 (centres unmarked) [Example 27] | 370
3 | O=C(O)CCNCc1ccc(-c2noc(-c3ccc(-c4ccccn4)cc3)n2)cc1 [Example 50] | 42
4 | Cc1cc(CNCCC(=O)O)ccc1-c1noc(-c2ccc(CC(C)C)cc2)n1 [Example 144] | 0.27
5 | O=C(O)CCNCc1ccc(OCc2cc(-c3ccccc3)c(C(F)(F)F)s2)c(Br)c1 [Example 151] | 27
6 | Cc1cc(-c2nc(-c3ccc(CNCCC(=O)O)cc3)no2)ccc1-c1cccc(C(F)(F)F)c1 [Example 76] | 0.35
7 | O=C(O)CCNCc1ccc(-c2noc(-c3cc(-c4ccccc4)c(C(F)(F)F)s3)n2)s1 [Example 124] | 0.2
8 | O=C(O)[C@H]1CC[C@@H](NCc2ccc(OCc3cc(-c4ccccc4)c(C(F)(F)F)s3)cc2)CC1 [Example 13] | 234
9 | Cc1cc(-c2ccccc2F)ccc1-c1nc(-c2ccc(CNCCC(=O)O)cc2)no1 [Example 58] | 56
10 | CC(C)Cc1ccc(-c2nc(-c3ccc(CNCCC(=O)O)s3)no2)cc1 [Example 128] | 16
11 | O=C(O)CCNCc1ccc(-c2noc(-c3ccc(-c4ccc(C(F)(F)F)cc4)cc3)n2)cc1 [Example 57] | 69
12 | Cc1cc(CN[C@H]2C[C@H](C(=O)O)C2)ccc1-c1noc(-c2ccc(CC(C)C)cc2)n1 [Example 146, (1R,3R)-3-(4-(5-(4-isobutylphenyl)-1,2,4,-oxadiazol-3-yl)-3-methylbenzylamino)cyclobutanecarboxylic acid] | 4.5
13 | Cc1cc(-c2nc(-c3ccc(CNCCC(=O)O)cc3)no2)ccc1-c1ccccc1C(F)(F)F [Example 86] | 0.31
14 | CC(C)Oc1ccc(-c2nc(-c3ccc(CNCCC(=O)O)cc3)no2)cc1C(F)(F)F [Example 49] | 0.6
15 | Cc1cc(-c2nc(-c3ccc(CNCCC(=O)O)cc3)no2)ccc1-c1ccsc1 [Example 113] | 0.07
16 | Cc1cc(-c2nc(-c3ccc(CNCCC(=O)O)cc3)no2)ccc1-c1cccc(F)c1 [Example 74] | 0.12
17 | CC(C)/C=C/CCCCc1nc(-c2ccc(CNCCC(=O)O)cc2)no1 [Example 43] | 46
18 | O=C(O)[C@@H]1C[C@H](O)[C@H](NCc2ccc(OCc3cc(-c4ccccc4)c(C(F)(F)F)s3)cc2)C1 [Example 16] | 94
19 | O=C(O)[C@@H]1CC=C[C@@H](NCc2ccc(OCc3cc(-c4ccccc4)c(C(F)(F)F)s3)cc2)C1 [Example 24] | 87
20 | O=C(O)[C@H]1CC[C@@H](NCc2ccc(OCc3cc(-c4ccccc4)c(C(F)(F)F)s3)cc2)C1 [Example 18] | 251
21 | CC(C)COc1ccc(-c2nc(-c3ccc(CN[C@H]4C[C@H](C(=O)O)C4)cc3)no2)cc1C(F)(F)F [Example 136] | 4
22 | CC(C)Cc1ccc(-c2nc(-c3ccc(CN[C@@H]4CC[C@@H](C(=O)O)C4)cc3)no2)cc1 [Example 139] | 23

Row | SMILES | EC50 [nM]
23 | Cc1cc(-c2ccccc2)ccc1-c1nc(-c2ccc(CNCCC(=O)O)cc2)no1 [Example 55] | 34
24 | O=C(O)[C@@H]1C[C@@H](O)[C@H](NCc2ccc(OCc3cc(-c4ccccc4)c(C(F)(F)F)s3)cc2)C1 [Example 15] | 121
25 | O=C(O)CCNCc1ccc(-c2noc(-c3ccc(OC4CCCCC4)c(C(F)(F)F)c3)n2)cc1 [Example 45] | 1.6
26 | N#Cc1cc(-c2nc(-c3ccc(CNCCC(=O)O)cc3)no2)ccc1-c1ccccc1F [Example 89] | 0.17
27 | Cc1cc(-c2nc(-c3ccc(CNCCC(=O)O)cc3)no2)ccc1C1CCCCC1 [Example 92] | 0.2
28 | O=C(O)CCNCc1ccc(-c2noc(-c3ccc(-c4ccccc4F)c(C(F)(F)F)c3)n2)cc1 [Example 98] | 0.37
29 | CCc1cc(-c2nc(-c3ccc(CNCCC(=O)O)cc3)no2)ccc1-c1ccccc1 [Example 101] | 0.41
30 | O=C(O)[C@@H]1C[C@H](NCc2ccc(OCc3cc(-c4ccccc4)c(C(F)(F)F)s3)cc2)CN1 [Example 22] | 268
31 | CCc1cc(-c2nc(-c3ccc(CNCCC(=O)O)cc3)no2)ccc1-c1ccccc1C#N [Example 102] | 0.41
32 | O=C(O)CCNCc1ccc(-c2noc(-c3ccc(-c4ccccc4OC(F)(F)F)c(C(F)(F)F)c3)n2)cc1 [Example 100] | 1.7
33 | Cc1cc(-c2nc(-c3ccc(CN[C@@H]4CC[C@@H](C(=O)O)C4)cc3)no2)ccc1-c1ccccc1 [Example 142] | 6.7
34 | O=C(O)CCNCc1ccc(-c2noc(-c3ccc(-c4ccccc4)cn3)n2)cc1 [Example 95] | 25
35 | O=C(O)CCNCc1ccc(-c2noc(-c3ccc(-c4ccccc4F)s3)n2)cc1 [Example 120] | 3.6
36 | Cc1cc(-c2nc(-c3ccc(CN[C@H]4C[C@H](C(=O)O)C4)cc3)no2)ccc1-c1ccccc1 [Example 134] | 1.2
37 | O=C(O)CCNCc1ccc(-c2noc(-c3cnc(OC4CCCC4)c(Cl)c3)n2)cc1 [Example 44] | 13
38 | Cc1cc(-c2nc(-c3ccc(CNCCC(=O)O)cc3)no2)ccc1-c1cscc1C [Example 115] | 0.04
39 | Cc1cc(-c2nc(-c3ccc(CNCCC(=O)O)cc3)no2)ccc1-c1ccco1 [Example 116] | 1.5
40 | O=C(O)[C@@H]1CC[C@H](NCc2ccc3cnn(Cc4ccc(-c5ccccc5)cc4)c3c2)C1 [Example 35, (1R,3s)-3-N-({1-(4-phenylbenzyl)-1H-indazol-6-yl)methyl}aminocyclopentane carboxylic acid] | 160
41 | O=C(O)CCNCc1ccc(OCc2cc(-c3ccccc3)c(C(F)(F)F)s2)cc1Cl [Example 149] | 4.5
42 | CCc1cc(-c2nc(-c3ccc(CNCCC(=O)O)cc3)no2)ccc1-c1ccccc1F [Example 108] | 0.29
43 | O=C(O)CCNCc1ccc(-c2noc(-c3ccc(-c4ccc(F)cc4)cc3)n2)cc1 [Example 69] | 14
44 | Cc1ccccc1-c1ccc(-c2nc(-c3ccc(CNCCC(=O)O)cc3)no2)cc1C [Example 110] | 0.35

Row | SMILES | EC50 [nM]
45 | Cc1cc(-c2nc(-c3ccc(CNCCC(=O)O)cc3)no2)ccc1-c1ccc(F)cc1 [Example 75] | 0.34
46 | O=C(O)CCNCc1ccc(-c2noc(-c3ccc(-c4ccccc4F)cc3)n2)cc1 [Example 67] | 0.8
47 | O=C(O)[C@@H]1CC[C@@H](NCc2ccc(-c3noc(-c4cc(-c5ccccc5)c(C(F)(F)F)s4)n3)cc2)C1 [Example 138] | 21
48 | CC(C)Sc1ccc(-c2nc(-c3ccc(CNCCC(=O)O)cc3)no2)cc1 [Example 83] | 11
49 | Cc1cc(-c2nc(-c3ccc(CNCCC(=O)O)cc3)no2)ccc1-c1ccc(C(F)(F)F)cc1 [Example 77] | 13
50 | N#Cc1ccccc1-c1ccc(-c2nc(-c3ccc(CNCCC(=O)O)cc3)no2)c(F)c1 [Example 88] | 10
51 | O=C(O)CCNCc1ccc(OCc2cc(-c3ccccc3)c(C(F)(F)F)s2)c(F)c1 [Example 152] | 6.4
52 | O=C(O)CCNCc1ccc(OCc2ccc3c(cnn3Cc3ccccc3)c2)cc1 [Example 37, 3-(4-(1-benzyl-1H-indazol-5-yl)methoxy)benzylaminopropanoic acid] | 64
53 | Cc1cc(-c2nc(-c3ccc(CNCCC(=O)O)cc3)no2)ccc1C1CCCC1 [Example 91] | 0.25
54 | O=C(O)CCNCc1ccc(-c2noc(-c3ccc(-c4ccccc4C(F)(F)F)cc3)n2)cc1 [Example 62] | 0.4
55 | Cc1cc(-c2nc(-c3ccc(CNCCC(=O)O)cc3)no2)ccc1-c1ccccc1C(C)C [Example 118] | 0.45
56 | Cc1cc(-c2nc(-c3ccc(CNCCC(=O)O)cc3)no2)ccc1-c1ccccc1OC(F)(F)F [Example 114] | 0.19
57 | Cc1cc(-c2nc(-c3ccc(CNCCC(=O)O)cc3)no2)ccc1-c1cccs1 [Example 112] | 0.34
58 | O=C(O)[C@H]1C[C@H](NCc2ccc(-c3noc(-c4cc(-c5ccccc5)c(C(F)(F)F)s4)n3)cc2)C1 [Example 130] | 4.5
59 | O=C(O)CCNCc1ccc(-c2noc(-c3ccc(-c4ccccc4)cc3)n2)cc1 [Example 48] | 3
60 | COc1cc(OCc2cc(-c3ccccc3)c(C(F)(F)F)s2)ccc1CNCCC(=O)O [Example 150] | 37
61 | O=C(O)C1CCC(NCc2ccc(OCc3cc(-c4ccccc4)c(C(F)(F)F)s3)cc2)CC1 (centres unmarked) [Example 9] | 161
62 | Cc1cc(-c2nc(-c3ccc(CNCCC(=O)O)cc3)no2)ccc1-c1ccccc1Cl [Example 111] | 0.17
63 | O=C(O)CCNCc1ccc(-c2noc(-c3ccc(-c4ccccc4C(F)(F)F)c(C(F)(F)F)c3)n2)cc1 [Example 99] | 1.3
64 | O=C(O)CCNCc1ccc(-c2noc(-c3ccc(/C=C/C(F)(F)F)cc3)n2)cc1 [Example 103] | 3.9
65 | O=C(O)CCNCc1ccc(-c2noc(-c3ccc(-c4ncccc4C(F)(F)F)cc3)n2)cc1 [Example 41] | 25

From patent US20080200535A1, “Amine Compounds” (Asahi Kasei Pharma Corporation, priority 2006, published 2008)
